# Values quoted from earlier work as cited in patent publication US20180344749A1, “CONTROLLED RELEASE FORMULATIONS OF SALICLATE-RELEASING ACTIVES” (Cogwellin, LLC, priority 2015, published 2018).
# What was measured:
# [1] = system: tau acetylation; settings: aspirin rapidly loses its acetyl group
# [2] = target: acetyltransferase p300 (Homo sapiens, UniProt Q09472); settings: for tau levels: enhance tau turnover
# [3] = not given; remark: listed apart in the source
# [4] = at anti-inflammatory doses
# [5] = in terms of salicylic acid equivalents
# [6] = system: PS19 transgenic mouse model of FTD; settings: administration after disease onset
# acetyltransferase p300, sequence (Q09472 whole entry): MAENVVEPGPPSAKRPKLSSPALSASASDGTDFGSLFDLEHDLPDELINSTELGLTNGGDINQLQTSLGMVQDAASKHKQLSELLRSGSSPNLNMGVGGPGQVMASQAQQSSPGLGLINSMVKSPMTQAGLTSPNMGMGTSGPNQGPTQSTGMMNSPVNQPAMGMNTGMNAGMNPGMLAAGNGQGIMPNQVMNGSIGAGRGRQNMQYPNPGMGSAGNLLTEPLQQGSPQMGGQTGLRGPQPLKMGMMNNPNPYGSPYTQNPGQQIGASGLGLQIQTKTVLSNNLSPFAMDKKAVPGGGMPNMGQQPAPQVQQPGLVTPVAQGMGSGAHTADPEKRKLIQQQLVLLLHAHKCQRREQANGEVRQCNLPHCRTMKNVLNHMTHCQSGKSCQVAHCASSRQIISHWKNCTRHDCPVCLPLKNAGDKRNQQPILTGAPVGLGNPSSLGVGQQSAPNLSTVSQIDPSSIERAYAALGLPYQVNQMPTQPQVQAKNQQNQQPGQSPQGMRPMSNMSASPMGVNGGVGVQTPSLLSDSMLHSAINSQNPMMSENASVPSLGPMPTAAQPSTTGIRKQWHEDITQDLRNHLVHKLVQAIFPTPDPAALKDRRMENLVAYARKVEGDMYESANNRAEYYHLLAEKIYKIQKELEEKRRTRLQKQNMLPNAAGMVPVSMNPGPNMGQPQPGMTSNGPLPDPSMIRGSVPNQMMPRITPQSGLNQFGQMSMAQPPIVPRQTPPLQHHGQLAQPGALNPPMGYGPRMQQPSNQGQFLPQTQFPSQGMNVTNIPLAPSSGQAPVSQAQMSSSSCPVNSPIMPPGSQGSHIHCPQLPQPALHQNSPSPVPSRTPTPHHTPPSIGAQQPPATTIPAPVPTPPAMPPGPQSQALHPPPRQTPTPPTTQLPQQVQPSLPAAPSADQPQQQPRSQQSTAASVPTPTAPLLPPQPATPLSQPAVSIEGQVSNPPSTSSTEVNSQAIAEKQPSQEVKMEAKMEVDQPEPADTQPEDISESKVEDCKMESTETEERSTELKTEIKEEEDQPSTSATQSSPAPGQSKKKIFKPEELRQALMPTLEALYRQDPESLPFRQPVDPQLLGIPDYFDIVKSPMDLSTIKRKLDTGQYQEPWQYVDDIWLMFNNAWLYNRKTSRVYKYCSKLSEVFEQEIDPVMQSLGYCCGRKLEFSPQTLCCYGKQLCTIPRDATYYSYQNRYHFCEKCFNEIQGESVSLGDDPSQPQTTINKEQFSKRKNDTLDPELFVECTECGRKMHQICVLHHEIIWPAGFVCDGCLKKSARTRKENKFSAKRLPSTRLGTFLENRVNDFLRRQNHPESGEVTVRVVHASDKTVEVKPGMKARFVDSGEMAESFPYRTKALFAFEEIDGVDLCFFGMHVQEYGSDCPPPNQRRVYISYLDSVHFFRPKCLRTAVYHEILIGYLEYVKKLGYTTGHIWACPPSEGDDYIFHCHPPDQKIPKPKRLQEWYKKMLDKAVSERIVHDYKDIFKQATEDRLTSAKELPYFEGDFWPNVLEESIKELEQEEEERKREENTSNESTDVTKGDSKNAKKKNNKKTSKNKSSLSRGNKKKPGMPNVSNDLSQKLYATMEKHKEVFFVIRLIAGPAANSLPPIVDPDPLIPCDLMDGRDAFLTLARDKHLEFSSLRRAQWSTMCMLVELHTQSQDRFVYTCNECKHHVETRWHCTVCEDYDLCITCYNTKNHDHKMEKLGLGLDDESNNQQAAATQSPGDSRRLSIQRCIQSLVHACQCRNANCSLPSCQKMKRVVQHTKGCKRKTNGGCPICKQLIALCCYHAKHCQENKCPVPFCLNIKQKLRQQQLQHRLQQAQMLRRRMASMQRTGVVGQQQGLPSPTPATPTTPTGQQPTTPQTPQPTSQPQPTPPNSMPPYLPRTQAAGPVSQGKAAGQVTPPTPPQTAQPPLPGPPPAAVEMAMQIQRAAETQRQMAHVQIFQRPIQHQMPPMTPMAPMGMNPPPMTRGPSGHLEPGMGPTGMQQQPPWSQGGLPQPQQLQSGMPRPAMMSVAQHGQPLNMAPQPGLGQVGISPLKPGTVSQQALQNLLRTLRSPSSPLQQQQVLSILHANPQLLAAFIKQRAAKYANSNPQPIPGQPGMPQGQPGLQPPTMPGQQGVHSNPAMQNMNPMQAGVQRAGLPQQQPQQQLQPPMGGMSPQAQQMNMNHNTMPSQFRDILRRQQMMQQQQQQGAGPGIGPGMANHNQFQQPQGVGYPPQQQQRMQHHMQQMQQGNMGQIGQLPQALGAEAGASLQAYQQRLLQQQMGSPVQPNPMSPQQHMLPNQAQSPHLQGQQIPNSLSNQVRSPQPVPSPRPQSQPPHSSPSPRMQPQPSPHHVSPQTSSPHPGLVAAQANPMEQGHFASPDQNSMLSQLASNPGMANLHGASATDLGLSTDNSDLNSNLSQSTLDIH
behaviour in the pH of the stomach,acetyltransferase p300-induced tau acetylation [2],tau levels [2],brain penetration ([3]; in vivo),gastrointestinal bleeding and gastric erosions compared with aspirin [4],salicylic acid obtained relative to an equivalent dose of aspirin (relative AUC) [5],solubility in the pH of the small intestine (small intestine pH),Structure (SMILES),tau acetylation in cell cultures [1],stability of salicylate levels after salsalate ([3]; over 8 hours),hippocampal atrophy [6],levels of total tau and tau acetylated at K174 [6],p300 activity [6],tau-induced memory deficits [6]
soluble,,,,,,,"CC(=O)Oc1ccccc1C(=O)O [aspirin, acetylsalicylic acid]",boost tau acetylation,,,,,
,inhibited,reduce tau levels,,,,,"O=C(O)c1ccccc1O [salicylate, salicylic acid]",,,,,,
undergoes particulate dispersion,inhibited,reduce tau levels,penetrates the brain,significantly less,approximately 84%,soluble,O=C(Oc1ccccc1C(=O)O)c1ccccc1O [salsalate],,relatively stable salicylate levels over 8 hours,prevented,lowered,inhibited p300 activity,rescued
